Eight compounds from ChEMBL document CHEMBL1201862, “PubChem BioAssay data set” (2004) can be followed below.

Some test systems named below: LOX IMVI; A498; RXF 393; U-251; UACC-62; SK-OV-3; UACC-257; SK-MEL-28; 786-0; SNB-19; IGROV-1; TK-10; UO-31; OVCAR-4; CCRF-CEM; Hs-578T; K562; EKVX; SK-MEL-5; OVCAR-8.
Common to all, as to experiment: NCI anticancer screen, dose series, 48 h

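Tested at 5 concentrations; 48 h exposure; 96-well plates; endpoints linearly interpolated, else capped at highest concentration. Here, GI50 denotes the concentration required for 50% inhibition of growth.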 The source made the active and inactive calls. Rule as the data show it: active = GI50 up to about 1.1 µM and inactive = higher.

`N/C(S)=N/N=C/c1ncccc1O`: the GI50 with LOX IMVI is 0.925 µM (active); with A498 it was 2.25 µM (inactive); in the assay with RXF 393, 0.843 µM (active); with U-251, 1.73 µM (inactive); in the assay on UACC-62, 0.482 µM (active); with SK-OV-3, 4.21 µM (inactive). The GI50 was 2.49 µM (inactive) in the assay with UACC-257; 4.29 µM (inactive) in the assay on SK-MEL-28; 1.16 µM (inactive) in the assay on 786-0; 2.65 µM (inactive) in the assay with SNB-19; 1.55 µM (inactive) in the assay on IGROV-1; 9.57 µM (inactive) with TK-10. For the same compound, the GI50 in the assay on UO-31 is 0.701 µM (active); in the assay with OVCAR-4, 2.96 µM (inactive); in the assay on CCRF-CEM it was 0.475 µM (active); in the assay with Hs-578T it was 30.8 µM (inactive); in the assay with K562, 1.83 µM (inactive); in the assay on EKVX, 2.35 µM (inactive).

In the case of `CO[C@@H]1[C@H](O)CC[C@]2(CO2)[C@H]1[C@@]1(C)O[C@@H]1CC=C(C)C`, the GI50 was 32.7 µM (inactive) with LOX IMVI; > 200 µM (inactive) with A498; > 200 µM (inactive) with RXF 393; 2.29 µM (inactive) with U-251; 54.3 µM (inactive) in the assay with UACC-62; > 200 µM (inactive) in the assay on SK-OV-3. For the same compound, the GI50 in the assay on SK-MEL-28 is > 200 µM (inactive); in the assay on 786-0, > 200 µM (inactive); in the assay on SK-MEL-5, > 200 µM (inactive); in the assay on SNB-19, 79.1 µM (inactive); with IGROV-1, 104 µM (inactive); with TK-10, > 200 µM (inactive). The GI50 in the assay with UO-31 was 83.2 µM (inactive); in the assay with OVCAR-4, > 200 µM (inactive); in the assay with CCRF-CEM it was > 200 µM (inactive); in the assay with Hs-578T it was > 200 µM (inactive); with K562 it was > 200 µM (inactive); in the assay with EKVX, 165 µM (inactive).

In the case of `Cc1ccc(S(=O)(=O)NC(=O)NNc2ccc(F)cc2)cc1`, the GI50 with LOX IMVI, with A498, with RXF 393, with U-251, in the assay on UACC-62 and in the assay on SK-OV-3 was > 100 µM (inactive) in each case. The GI50 in the assay with UACC-257, in the assay with SK-MEL-28, with 786-0, with SK-MEL-5, with SNB-19 and in the assay on IGROV-1 was > 100 µM (inactive) in each case. The GI50 was > 100 µM (inactive) in the assay on TK-10; > 31.6 µM (inactive) in the assay with UO-31; > 100 µM (inactive) in the assay on OVCAR-4; > 100 µM (inactive) with CCRF-CEM; > 100 µM (inactive) in the assay on Hs-578T; > 100 µM (inactive) with EKVX.

As for `CCCc1cc2c(cc1O)CC[C@@H]1[C@@H]2CC[C@]2(C)[C@@H](O)CC[C@@H]12`, the GI50 in the assay with LOX IMVI is 10.5 µM (inactive); with A498, 17.9 µM (inactive); in the assay on RXF 393, 10.2 µM (inactive); in the assay on U-251, 6.62 µM (inactive); with SK-OV-3, 14.6 µM (inactive); with UACC-257, 13.1 µM (inactive). For the same compound, the GI50 in the assay with SK-MEL-28 was 13.1 µM (inactive); in the assay with 786-0, 13.6 µM (inactive); with SK-MEL-5, 10.5 µM (inactive); with SNB-19, 12.9 µM (inactive); with IGROV-1, 15.2 µM (inactive); in the assay on TK-10 it was 16.2 µM (inactive). The GI50 in the assay on UO-31 was 12 µM (inactive); with OVCAR-4, 17.7 µM (inactive); with CCRF-CEM it was 5.41 µM (inactive); in the assay with Hs-578T, 10.1 µM (inactive); with K562, 3.17 µM (inactive); in the assay on EKVX, 12.7 µM (inactive). The GI50 in the assay on OVCAR-8 is 14.4 µM (inactive).

For `O=c1oc2ccc3ccccc3c2cc1-c1nc2ccccc2s1`, the GI50 with LOX IMVI, in the assay on A498, in the assay with RXF 393, in the assay with U-251, with UACC-62 and with SK-OV-3 was > 100 µM (inactive) throughout. Also, the GI50 with UACC-257, in the assay with SK-MEL-28, in the assay on 786-0, in the assay on SK-MEL-5, in the assay on IGROV-1 and with TK-10 was > 100 µM (inactive) each time. Moreover, the GI50 with UO-31 is > 100 µM (inactive); with OVCAR-4 it was > 100 µM (inactive); in the assay with CCRF-CEM it was > 100 µM (inactive); in the assay with Hs-578T, > 100 µM (inactive); in the assay on K562, > 20.6 µM (inactive); in the assay with EKVX, > 100 µM (inactive). The GI50 with OVCAR-8 was > 100 µM (inactive).

With `COC(=O)C1C(C(=O)OC)C2(OC(c3ccc(Cl)cc3)=CC2=O)C12OC(c1ccc(Cl)cc1)=CC2=O` (stereo not drawn), the GI50 in the assay with LOX IMVI is 23.1 µM (inactive); in the assay with A498, 29.9 µM (inactive); in the assay with RXF 393, 17.5 µM (inactive); in the assay on U-251 it was 32.1 µM (inactive); in the assay on UACC-62, 14.6 µM (inactive); with SK-OV-3, 71.1 µM (inactive). Moreover, the GI50 in the assay with UACC-257 is 22.9 µM (inactive); in the assay with SK-MEL-28, 36.8 µM (inactive); in the assay with 786-0, 16.6 µM (inactive); with SK-MEL-5, 19.3 µM (inactive); in the assay on SNB-19, 43.2 µM (inactive); in the assay with IGROV-1 it was 17 µM (inactive). The GI50 with TK-10 was 22.6 µM (inactive); with UO-31 it was 16.6 µM (inactive); in the assay on OVCAR-4 it was 19.9 µM (inactive); in the assay on CCRF-CEM, 3.01 µM (inactive); in the assay on Hs-578T it was 30.5 µM (inactive); with K562, 19.3 µM (inactive). For the same compound, the GI50 in the assay on EKVX is 22.3 µM (inactive).

On to `COc1ccc(C2SC(=N)Nc3c2c(C)nn3C(=O)c2ccccc2O)cc1OC` (stereo not drawn), for which the GI50 was 4.58 µM (inactive) in the assay on LOX IMVI; 5.93 µM (inactive) in the assay on A498; 3.61 µM (inactive) with RXF 393; 4.5 µM (inactive) with U-251; 2.64 µM (inactive) with UACC-62; 2.54 µM (inactive) in the assay on SK-OV-3. For the same compound, the GI50 with UACC-257 was > 10 µM (inactive); in the assay with SK-MEL-28, 9.51 µM (inactive); in the assay on 786-0, 7.1 µM (inactive); in the assay on SNB-19 it was 5.42 µM (inactive); in the assay on IGROV-1, 4.71 µM (inactive); with TK-10 it was > 10 µM (inactive). The GI50 with UO-31 is 4.61 µM (inactive); in the assay with OVCAR-4, 7.93 µM (inactive); in the assay with CCRF-CEM, 4.93 µM (inactive); with Hs-578T, 1.56 µM (inactive); with K562, 3.53 µM (inactive); in the assay on EKVX it was > 10 µM (inactive).

For `O=C(O)C1CCCN1Cc1cc2ccccc2c2ccccc12` (stereo not drawn), the GI50 in the assay with LOX IMVI, with A498, in the assay with RXF 393, with U-251, in the assay on UACC-62 and in the assay with SK-OV-3 was > 100 µM (inactive) each time. Also, the GI50 in the assay with UACC-257, in the assay on SK-MEL-28, with 786-0, in the assay on SK-MEL-5, with SNB-19 and in the assay on IGROV-1 was > 100 µM (inactive) each time. Also, the GI50 in the assay on TK-10 was > 100 µM (inactive); in the assay with UO-31, > 100 µM (inactive); in the assay with OVCAR-4, > 100 µM (inactive); in the assay on Hs-578T, > 100 µM (inactive); in the assay on K562, 40.1 µM (inactive); in the assay on EKVX, > 100 µM (inactive). Moreover, the GI50 in the assay on OVCAR-8 is > 100 µM (inactive).
